Reference: patent US20100144793A1, “NOVEL COMPOUNDS FOR THE TREATMENT OF DISEASES ASSOCIATED WITH AMYLOID OR AMYLOID-LIKE PROTEINS” (AC IMMUNE SA, priority 2006, published 2010)
Structures can show the parent of a compound that is named as a salt. Where two headings read alike, the source gives them in different places.

Tests used:
Type in all cases: biochemical
Aβ1-42 = target: T1, Aβ1-42 (Homo sapiens, UniProt P05067); test: Thioflavin T spectrofluorescence assay: inhibition of Aβ1-42 aggregation; conditions: 24 h
T1 construct: Aβ1-42 lyophilized powder (Bachem) was reconstituted in hexafluoroisopropanol (HFIP) to 1 mM; purchased Bachem
Description: (§1) The objective of this example was to evaluate the capacity of the compounds of the invention to inhibit the aggregation of (Aβ)1-42 peptide and to disaggregate pre-aggregated Aβ1-42 using a thioflavin T spectrofluorescence assay.
(§2) Aβ1-42 lyophilized powder (Bachem) was reconstituted in hexafluoroisopropanol (HFIP) to 1 mM. The peptide solution was sonicated for 15 min at room temperature, agitated overnight, and aliquots were placed into non-siliconized microcentrifuge tubes. The HFIP was then evaporated under a stream of argon. The resulting peptide film was dried under vacuum for 10 min, tightly sealed and stored at −80° C. until used.
Aβ1-42 peptide film was dissolved in DMSO to reach 400 μM. Assay solution in PBS was prepared in non-siliconized incubation tubes to reach the following concentrations: 330 μM small molecule, 33 μM Aβ1-42, 10 μM thioflavin T (ThT), and 12.8% DMSO. Therefore, the final molar ratio of small molecule to Aβ1-42 was 10:1. A positive control without a small molecule was prepared to measure maximum RFU. A negative control without Aβ1-42 was prepared for each small molecule. 3-aminopyrazole trimer (Trimer) was tested in all assays to ascertain reproducibility between independent experiments. The solutions were then incubated for 24 h at 37° C., and the spectrofluorescence (relative fluorescence units; RFU) read in six replicates in black 384-well assay plates (Perkin-Elmer) on a Perkin-Elmer FluoroCount spectrofluorometer. Inhibition of aggregation is expressed as mean % inhibition±1 standard deviation (SD) according to the following equation: […]

preformed Aβ1-42 fibers = target: T2, preformed Aβ1-42 fibers (Homo sapiens, UniProt P05067); test: Thioflavin T spectrofluorescence assay: disaggregation of preformed Aβ1-42 fibers; conditions: Table 5; 330 μM small molecule, 10:1 molar ratio to pre-aggregated Aβ1-42, additional 24 h at 37° C.; mean ± SD of two independent experiments
T2 construct: Aβ1-42 lyophilized powder (Bachem) was reconstituted in hexafluoroisopropanol (HFIP) to 1 mM; purchased Bachem
Description: as §1, §2
This solution was then allowed to aggregate at 37° C. for 24 h after which a small molecule and ThT were added to obtain a final concentration of 330 μM small molecule and 10 μM ThT. […] This solution was then incubated for additional 24 h at 37° C. The spectrofluorescence was then measured and % disaggregation calculated. Disaggregation is expressed as mean % disaggregation±1 standard deviation (SD) according to the same equation as for the inhibition of aggregation.

[1] = target: T3, Oregon Green labeled Aβ(1-42) (Homo sapiens, UniProt P05067); test: FCS-assay with 5 nM Oregon Green labeled Aβ-peptide (disaggregation of preformed aggregates)
T3 construct: DMSO-stock solutions of Oregon Green labeled Aβ(1-42) 1:1 with deionized water
Description: In order to analyse the disaggregating properties of the compounds, preformed aggregates were used, which were induced straight before the FCS-measurement by diluting low concentrated (500 nM) DMSO-stock solutions of Oregon Green labeled Aβ(1-42) 1:1 with deionized water. The final concentration of Oregon Green labeled Aβ-peptide was 5 nM in 1×PBS and 3% DMSO.
To improve the reproducibility of the measurements of the concentration dependencies all samples were prepared fourfold.

[2] = read-out: Percentage of the “number of peaks” value compared to the control reaction without added ligand
[3] = read-out: Percentage of the “peaks × height“ value compared to the control reaction without added ligand

T2 sequence (P05067 672-713 limits assumed): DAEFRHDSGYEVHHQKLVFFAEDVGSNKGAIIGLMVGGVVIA
T1 sequence (P05067 672-713 limits assumed): as above
T3 sequence (P05067 672-713 limits assumed): as above

SMILES | inhibition at 330 µM (Aβ1-42) [%] | % disaggregation (preformed Aβ1-42 fibers) [%] | remaining activity at 0.2 µM [1, 2] [%] | remaining activity at 0.2 µM [1, 3] [%] | remaining activity at 0.01 µM [1, 2] [%] | remaining activity at 0.1 µM [1, 2] [%] | remaining activity at 0.01 µM [1, 3] [%] | remaining activity at 0.1 µM [1, 3] [%] | remaining activity at 1 µM [1, 2] [%] | remaining activity at 5 µM [1, 2] [%] | remaining activity at 25 µM [1, 2] [%] | remaining activity at 100 µM [1, 2] [%] | remaining activity at 1 µM [1, 3] [%] | remaining activity at 5 µM [1, 3] [%] | remaining activity at 25 µM [1, 3] [%] | remaining activity at 100 µM [1, 3] [%]
Clc1ccc(-c2cc(NCCNc3cc(-c4ccc(Cl)cc4)[nH]n3)n[nH]2)cc1 [Compound 1f, N^1,N^2-bis(5-(4-Chlorophenyl)-1H-pyrazol-3-yl)ethane-1,2-diamine bishydrochloride] | 86.5 ± 7.4 | 78.4 ± 1.7 | 55.9 | 101 |  |  |  |  |  |  |  |  |  |  |  | 
Cc1ccc(-c2cc(NCCNc3cc(-c4cccs4)[nH]n3)n[nH]2)cc1 [Compound 1ab, N-(5-(Thiophen-2-yl)-1H-pyrazol-3-yl)-N′-(5-p-tolyl-1H-pyrazol-3-yl)ethane-1,2-diamine bishydrochloride] | 85 ± 8.6 | 78.0 ± 4.5 |  |  | 55.6 | 54.2 | 27 | 51.4 |  |  |  |  |  |  |  | 
Cc1ccc(-c2cc(NCCNc3cc(-c4ccc(C)cc4)[nH]n3)n[nH]2)cc1 [Compound 1d, N^1,N^2-bis(5-p-Tolyl-1H-pyrazol-3-yl)ethane-1,2-diamine bishydrochloride] | 88.3 ± 1 | 77.1 ± 2.5 | 72.8 | 83.1 |  |  |  |  |  |  |  |  |  |  |  | 
Clc1ccc(-c2cc(NCCNc3cc(-c4cccs4)[nH]n3)n[nH]2)cc1 [Compound 1ah, N-(5-(4-Chlorophenyl)-1H-pyrazol-3-yl)-N′-(5-(thiophen-2-yl)-1H-pyrazol-3-yl)ethane-1,2-diamine bishydrochloride] | 89.1 ± 2.5 | 88.8 ± 1.6 | 60.8 | 69.3 | 44.4 | 61.1 | 38.9 | 44.8 | 83.7 | 82.6 | 75 | 40.9 | 136 | 112 | 254 | 143
